These results are taken from ChEMBL document CHEMBL1201862, “PubChem BioAssay data set” (2004).

Some test systems named below: A549; HCT-116; HL-60; HOP-62; HT-29; IGROV-1; KM12; LOX IMVI; NCI-H522; OVCAR-5; OVCAR-8; SK-MEL-28; SK-MEL-2; SW-620; U-251; UACC-62; COLO 205.
Common to all, as to experiment: growth of human tumour cells (NCI), 48 h

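Compound exposure: 48 hours, 5 concentrations, 96-well plates. GI50: concentration for 50% inhibition of growth.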 Active and inactive are the calls of the source. Rule as the data show it: active = GI50 up to about 1.1 µM and inactive = higher. Some results are limits rather than exact numbers.

Regarding `CC(=O)/C(=C\c1cccc([N+](=O)[O-])c1)C(=O)Nc1ccccc1C`, the GI50 with A549 was > 100 µM (inactive); in the experiment with HCT-116, 57.3 µM (inactive); with HL-60, 20.2 µM (inactive); in the experiment on HOP-62, > 100 µM (inactive); in the experiment with HT-29 it was 95.1 µM (inactive); in the experiment on IGROV-1 it was > 100 µM (inactive). Besides, the GI50 was > 100 µM (inactive) in the experiment on KM12; 60.1 µM (inactive) with LOX IMVI; > 100 µM (inactive) in the experiment with NCI-H522; > 100 µM (inactive) with OVCAR-5; > 10 µM (inactive) with OVCAR-8; > 100 µM (inactive) in the experiment with SK-MEL-28. Moreover, the GI50 in the experiment on SK-MEL-2 is > 100 µM (inactive); with SW-620, > 100 µM (inactive); with U-251, 91.2 µM (inactive); with UACC-62 it was 59.2 µM (inactive).

For `C=CCC(C(=O)OC)C1(C(=O)OC)c2[nH]c3ccccc3c2CCN1Cc1ccccc1` (configuration not stated), the GI50 in the experiment with A549 was 58.9 µM (inactive); with COLO 205 it was > 100 µM (inactive); in the experiment with HCT-116, 69.5 µM (inactive); in the experiment with HL-60 it was 18.2 µM (inactive); with HOP-62, > 100 µM (inactive); with HT-29 it was > 100 µM (inactive). Also, the GI50 with IGROV-1 is > 100 µM (inactive); in the experiment on KM12, > 100 µM (inactive); in the experiment with NCI-H522, > 100 µM (inactive); in the experiment with OVCAR-5, > 100 µM (inactive); with OVCAR-8, 83.6 µM (inactive); in the experiment on SK-MEL-28, > 100 µM (inactive). Further, the GI50 in the experiment on SK-MEL-2 is > 100 µM (inactive); with SW-620 it was > 100 µM (inactive); with U-251, 64.4 µM (inactive); in the experiment on UACC-62 it was 74.6 µM (inactive).

As to `CNCC(=O)Nc1ccc2c(c1)C(=O)c1ccc(NC(=O)CNC)cc1C2=O`, the GI50 was 11.2 µM (inactive) in the experiment with A549; 2.37 µM (inactive) in the experiment on COLO 205; 1.81 µM (inactive) with HCT-116; 2.9 µM (inactive) in the experiment with HOP-62; 4.42 µM (inactive) in the experiment with HT-29; 16.6 µM (inactive) in the experiment with IGROV-1. In addition, the GI50 in the experiment with KM12 was 0.767 µM (active); in the experiment with LOX IMVI, 1.68 µM (inactive); with NCI-H522, 1.59 µM (inactive); in the experiment with OVCAR-5, 17.5 µM (inactive); with OVCAR-8, 2.69 µM (inactive); with SK-MEL-28 it was 2.54 µM (inactive). Moreover, the GI50 with SK-MEL-2 is 3.66 µM (inactive); with SW-620, 2.56 µM (inactive); in the experiment on U-251 it was 2.7 µM (inactive); in the experiment on UACC-62, 10.3 µM (inactive).

With `COc1ccc(/C=c2/sc3n(c2=O)NC2(CCC(C)CC2)NN=3)cc1` (configuration not stated), the GI50 with A549, in the experiment with COLO 205, in the experiment with HCT-116, with HOP-62, in the experiment with HT-29 and with IGROV-1 was > 100 µM (inactive) each time. For the same molecule, the GI50 with KM12, in the experiment on LOX IMVI, with NCI-H522, with OVCAR-5, in the experiment on OVCAR-8 and with SK-MEL-28 was > 100 µM (inactive) throughout. For the same molecule, the GI50 in the experiment with SK-MEL-2, in the experiment with SW-620, in the experiment with U-251 and with UACC-62 was > 100 µM (inactive) throughout.

Consider `O=C(COC(=O)c1cccc2c(=O)c3ccccc3[nH]c12)Nc1ccc(S(=O)(=O)Nc2ncccn2)cc1`, for which the GI50 was > 100 µM (inactive) in the experiment with A549; 59.6 µM (inactive) in the experiment with COLO 205; 39.6 µM (inactive) with HCT-116; 30.9 µM (inactive) in the experiment on HL-60; 41.6 µM (inactive) in the experiment on HOP-62; 31.8 µM (inactive) with HT-29. Also, the GI50 was 39.8 µM (inactive) in the experiment on IGROV-1; 43.9 µM (inactive) with KM12; 35.7 µM (inactive) in the experiment on LOX IMVI; 24.4 µM (inactive) in the experiment on NCI-H522; 39.3 µM (inactive) in the experiment on OVCAR-5; 35.8 µM (inactive) in the experiment with OVCAR-8. Further, the GI50 was 32.9 µM (inactive) with SK-MEL-28, 47.2 µM (inactive) in the experiment on SW-620, 24.3 µM (inactive) in the experiment with U-251 and 20 µM (inactive) with UACC-62.

As to `CSc1snc2sc3c(Cl)nnnc3c12`, the GI50 in the experiment on A549 was 17.9 µM (inactive); in the experiment on COLO 205 it was 10.5 µM (inactive); with HCT-116, 16 µM (inactive); with HOP-62 it was 16.1 µM (inactive); with HT-29, 4.84 µM (inactive); with IGROV-1, 18.3 µM (inactive). Also, the GI50 in the experiment on KM12 was 16.4 µM (inactive); in the experiment on LOX IMVI, 3.12 µM (inactive); with OVCAR-5, 17.2 µM (inactive); in the experiment with OVCAR-8, 7.46 µM (inactive); with SK-MEL-28, 10.6 µM (inactive); in the experiment on SK-MEL-2, 12.6 µM (inactive). For the same molecule, the GI50 in the experiment with SW-620 is 3.8 µM (inactive); in the experiment on U-251, 15.1 µM (inactive); with UACC-62, 14.2 µM (inactive).

On to `CCc1cccc(C)c1NC(=O)CC(=O)NNC(N)=S`, for which the GI50 in the experiment on A549, in the experiment with COLO 205, in the experiment with HL-60, with HOP-62, with HT-29 and in the experiment on KM12 was > 100 µM (inactive) each time. Also, the GI50 with LOX IMVI, in the experiment on NCI-H522, in the experiment on OVCAR-5, with OVCAR-8, in the experiment on SK-MEL-28 and with SW-620 was > 100 µM (inactive) each time. For the same molecule, the GI50 with U-251 is > 100 µM (inactive).

Consider `Cc1ccc(S(=O)(=O)N(/N=C/C=C/c2ccccc2)c2nnc(-c3ccccc3)c(-c3ccccc3)n2)cc1`, for which the GI50 in the experiment on A549 is 16.9 µM (inactive); with COLO 205, 16.9 µM (inactive); in the experiment with HL-60 it was 14.9 µM (inactive); in the experiment on HOP-62 it was 18.3 µM (inactive); in the experiment on HT-29, 0.619 µM (active); in the experiment on IGROV-1, 34.6 µM (inactive). Further, the GI50 was 23 µM (inactive) with KM12; 21.5 µM (inactive) in the experiment on LOX IMVI; 15.9 µM (inactive) with NCI-H522; 41.2 µM (inactive) with OVCAR-5; 25.6 µM (inactive) with OVCAR-8; 26.3 µM (inactive) with SK-MEL-28. Moreover, the GI50 in the experiment on SK-MEL-2 is 17 µM (inactive); with SW-620, 30.4 µM (inactive); in the experiment on U-251 it was 32.1 µM (inactive); with UACC-62, 26.7 µM (inactive).

For `Cc1ccc(-c2cc(-c3ccco3)c(C#N)c(=O)n2C2OC(OC(=O)c3ccccc3)C(OC(=O)c3ccccc3)C2OC(=O)c2ccccc2)cc1` (configuration not stated), the GI50 with A549 is > 100 µM (inactive); with COLO 205 it was > 10 µM (inactive); in the experiment on HCT-116 it was 32.1 µM (inactive); with HOP-62, 43 µM (inactive); in the experiment on HT-29 it was > 100 µM (inactive); with IGROV-1 it was 42.8 µM (inactive). Moreover, the GI50 in the experiment on KM12 is > 100 µM (inactive); in the experiment on LOX IMVI, > 100 µM (inactive); in the experiment on NCI-H522 it was 62.8 µM (inactive); with OVCAR-5 it was > 100 µM (inactive); in the experiment with OVCAR-8 it was > 100 µM (inactive); in the experiment on SK-MEL-28, > 100 µM (inactive). Also, the GI50 in the experiment with SK-MEL-2 was > 100 µM (inactive); in the experiment with SW-620 it was > 100 µM (inactive); with U-251, 0.925 µM (active); in the experiment on UACC-62 it was > 100 µM (inactive).

For the molecule `COc1cccc(/C=C(\NC(C)=O)c2nc3cc(Cl)ccc3[nH]2)c1`, the GI50 with A549, with COLO 205, with HT-29, in the experiment on IGROV-1, with KM12 and in the experiment with NCI-H522 was > 100 µM (inactive) each time. Also, the GI50 with OVCAR-5, in the experiment on OVCAR-8, in the experiment with SK-MEL-28, in the experiment with SK-MEL-2, in the experiment with SW-620 and in the experiment with U-251 was > 100 µM (inactive) throughout. Besides, in the experiment on UACC-62, the GI50 is > 100 µM (inactive).

On to `CC1(Br)C(=O)NC(=O)N(C2CC(N=[N+]=[N-])C(CO)O2)C1N=[N+]=[N-]` (configuration not stated), for which the GI50 in the experiment on A549, in the experiment on COLO 205, with HL-60, in the experiment on HOP-62, in the experiment on HT-29 and with IGROV-1 was > 100 µM (inactive) throughout. Besides, the GI50 is > 100 µM (inactive) in the experiment on KM12; > 100 µM (inactive) in the experiment on LOX IMVI; 23.1 µM (inactive) in the experiment with NCI-H522; > 100 µM (inactive) in the experiment on OVCAR-5; > 100 µM (inactive) in the experiment on OVCAR-8; > 100 µM (inactive) in the experiment with SK-MEL-28. Moreover, the GI50 in the experiment on SK-MEL-2, with SW-620, in the experiment on U-251 and in the experiment on UACC-62 was > 100 µM (inactive) in each case.

For `O=C1NC(=O)C(C(=O)C(=O)Nc2ccc(Cl)cc2Cl)C(=O)N1`, the GI50 with A549, in the experiment on COLO 205, in the experiment with HCT-116, in the experiment on HL-60, in the experiment on HOP-62 and in the experiment with IGROV-1 was > 100 µM (inactive) each time. Moreover, the GI50 in the experiment on KM12 is 93.1 µM (inactive); in the experiment on OVCAR-5, > 100 µM (inactive); in the experiment on OVCAR-8, > 100 µM (inactive); in the experiment with SK-MEL-2 it was > 100 µM (inactive); with SW-620, > 100 µM (inactive); in the experiment on U-251, > 100 µM (inactive). In addition, the GI50 in the experiment on UACC-62 was > 100 µM (inactive).

As for `O=C1OCC(C(=O)c2cccc(O)c2)C1=O` (configuration not stated), the GI50 in the experiment with A549, with COLO 205, with HCT-116, in the experiment on HOP-62, in the experiment with HT-29 and in the experiment with IGROV-1 was > 100 µM (inactive) in each case. Also, the GI50 in the experiment on KM12, in the experiment on LOX IMVI, in the experiment with NCI-H522, with OVCAR-5, in the experiment on OVCAR-8 and in the experiment on SK-MEL-28 was > 100 µM (inactive) throughout. Besides, the GI50 with SW-620, in the experiment on U-251 and in the experiment on UACC-62 was > 100 µM (inactive) throughout.
